Key:
[1] = system: Male ICR mice; experiment: Analgesic activity test: mouse writhing test by inducing with phenyl-p-quinone; type: in vivo; conditions: writhes vs control
Method: (3) Analgesic Activity Test: Mouse Writhing Test by Inducing with Phenyl-p-quinone
Male ICR mice (mean body weight 25 g) were maintained in a controlled lighting environment (12 h on/12 h off) for experiment. Animals received an intraperitoneal injection of 0.3 ml of the chemical irritant phenyl-p-quinone (dissolved in saline containing 5% ethanol to be a dose of 4.5 mg/kg) and 6 min later, the number of abdominal constrictions was counted in the subsequent 6 min period. Animals (10 animals/group) received 0.2 ml of test compounds solution in vehicle of ethanol/Tween 80/saline (10/10/80) intraperitoneally 30 min before the injection of phenyl-p-quinone. A reduction in the number of writhes responding to the test drug compound relative to the number responding in saline control group was considered to be indicative of an analgesic effect. Analgesic effect was calculated by % inhibition equation (% inhibition=(C−T)/C×100), wherein C and T represent the number of writhes in control and compound-treated group, respectively (Table 2).

[2] = system: Male ICR mice; experiment: Antiinflammatory activity test: TPA-induced mouse ear edema test; type: in vivo; conditions: dose 1 mg/ear topical; ear weight increase 24 h after TPA
Method: (4) Antiinflammatory Activity Test: TPA (12-O-tetradecanoylphorbol 13-acetate)-induced Mouse Ear Edema Test
Male ICR mice (body weight 25-30 g), 10 animals/group, were treated topically on the right ear with 30 μl of TPA (2.5 μg) solution in acetone and after 15 min, […] of acetone or test compound solution in acetone was applied topically. After six hours, an identical treatment was applied again. After twenty four hours following the treatment of TPA, the animals were sacrificed and ear tissue was dissected using 6 mm-diameter punch. Ear tissue dissected were weighed to the nearest 0.1 mg on an electrobalance. The increased weight of the tissue compared to control group was considered as an index of inflammation. The percent inhibition is defined by the following equation:
% inhibition=(C−T)/C×100, wherein C and T represent an increase of ear weight in TPA-treated and ThA+drug-treated group, respectively.

[3] = target: T1, cation channel connected to vanilloid receptor (Rattus norvegicus, UniProt O35433); experiment: Channel activity assay (patch clamp test); type: cell-based; design: key: NR: no response; +: antagonistic potency equal to capsazepine; ++: antagonistic potency 10 times higher than capsazepine; conditions: potency relative to capsazepine
T1 construct: endogenous in cells
Method: (2) Channel Activity Assay
Antagonistic activities of test compounds were assayed based on electrical change of cation channel connected to vanilloid receptor and experiments were conducted according to reference method (Oh et al., 1996, J. Neuroscience 16, pp1659-1667) (Table 1).

[4] = dose 10 mg/kg intraperitoneally 30 min before phenyl-p-quinone

T1 sequence (O35433 whole entry): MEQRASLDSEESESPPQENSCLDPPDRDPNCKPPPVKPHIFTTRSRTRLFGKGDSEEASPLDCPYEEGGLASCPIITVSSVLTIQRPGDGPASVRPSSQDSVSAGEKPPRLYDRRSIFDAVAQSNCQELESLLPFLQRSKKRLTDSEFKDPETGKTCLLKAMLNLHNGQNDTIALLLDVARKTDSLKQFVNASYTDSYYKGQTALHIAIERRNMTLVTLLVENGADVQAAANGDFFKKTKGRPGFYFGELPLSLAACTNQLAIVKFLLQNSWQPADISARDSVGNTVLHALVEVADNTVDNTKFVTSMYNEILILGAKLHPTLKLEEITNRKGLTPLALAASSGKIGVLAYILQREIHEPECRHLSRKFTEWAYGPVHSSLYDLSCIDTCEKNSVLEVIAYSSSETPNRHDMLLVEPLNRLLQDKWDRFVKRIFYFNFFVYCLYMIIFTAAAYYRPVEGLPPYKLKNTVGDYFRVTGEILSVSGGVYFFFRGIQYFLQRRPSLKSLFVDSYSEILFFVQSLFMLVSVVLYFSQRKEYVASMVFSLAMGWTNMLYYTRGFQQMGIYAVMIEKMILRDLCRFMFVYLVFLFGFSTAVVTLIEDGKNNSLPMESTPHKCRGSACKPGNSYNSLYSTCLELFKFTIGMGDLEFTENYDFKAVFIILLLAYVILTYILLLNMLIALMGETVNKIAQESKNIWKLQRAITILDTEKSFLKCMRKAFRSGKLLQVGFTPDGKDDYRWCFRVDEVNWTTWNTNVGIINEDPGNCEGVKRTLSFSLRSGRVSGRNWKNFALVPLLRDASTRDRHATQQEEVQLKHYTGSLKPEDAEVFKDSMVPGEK

COc1cc(CCC(CCc2ccccc2)OC(=S)NCCc2ccccc2)ccc1O (stereo not shown) [Example 5, Phenethyl Thiocarbamic Acid O-[3-(4-hydroxy-3-methoxyphenyl)-1-phenethylpropyl] Ester]
Analgesic effect (% Inhibition) [1, 4]: 44%
Anti-inflammatory effect (% Inhibition) [2]: 33%
Patch clamp Test (antagonistic activities) [3]: +

COc1cc(CCC(CCc2ccc(C(F)(F)F)cc2)OC(=S)NCCc2ccccc2)ccc1O (stereo not shown) [Example 54]
Analgesic effect (% Inhibition) [1, 4]: 64%
Anti-inflammatory effect (% Inhibition) [2]: 40%
Patch clamp Test (antagonistic activities) [3]: +

COc1cc(CCC(C)(C)OC(=S)NCCc2ccccc2)ccc1O [Example 56]
Patch clamp Test (antagonistic activities) [3]: +

COc1cc(OCC2CO2)ccc1O[Si](C)(C)C(C)(C)C (stereo not shown) [Example 60, t-butyl-(2-methoxy-4-oxiranylmethoxy-phenoxy)-dimethyl-silane]
Analgesic effect (% Inhibition) ([1]; dose 1 mg/kg intraperitoneally 30 min before phenyl-p-quinone): 45%
Anti-inflammatory effect (% Inhibition) [2]: 45%

CCC(COc1ccc(NS(C)(=O)=O)c(C(F)(F)F)c1)OC(=S)NCCc1ccccc1 (stereo not shown) [Example 83]
Patch clamp Test (antagonistic activities) [3]: +

Source: US20030203944A1, “Novel thiocarbamic acid derivatives and the pharmaceutical compositions containing the same” (priority 2000, published 2003)
